Where two headings read alike, the source gives them in different places.
Experiments:
[1] = test system: T. cruzi epimastigotes (Dm28c strain); assay: Anti-epimastigote effect (proliferation/survival, counting of viable forms); type: cell-based, Trypanosoma cruzi; conditions: for activity on proliferation/survival of epimastigotes (in words): 100, 50, 25 and 2 μM; for IC50: read-out: IC50 T. cruzi
Procedure: The four natural compounds (CUR, DMC, BDMC and CC) were evaluated on the proliferation/survival of T. cruzi epimastigotes (Dm28c strain) in four different concentrations (100, 50, 25 and 2 μM). The parasites were cultivated for 7 days in BHI (Brain Heart Infusion) medium supplemented with 10% (v/v) fetal bovine serum. Controls were incubated solely and with 0.02% DMSO and the cultures were readily incubated with the natural compounds. Mobile epimastigote forms were considered as viable forms, and were counted on Neubauer chambers using phase contrast microscopy.
Epimastigotes of T. cruzi (Dm28c strain) were cultured at 27°C in Bacto™ Brain Heart infusion (BHI, Becton Dickinson Company, USA) supplemented with 10 μg.mL^-1 hemin, 0.02 g.L^-1 folic acid (from Sigma-Aldrich, USA) and 10% (v/v) of heat inactivated fetal bovine serum (FCS, Gibco/Life technologies).
Epimastigotes forms of T. cruzi, Dm28c strain (2x10^5 cells.mL^-1), were grown for 7 days in BHI culture medium at 26°C. Some cultures were treated with curcumin (CUR), demethoxycurcumin (DMC), bisdemethoxycurcumin (BDMC) or cyclocurcumin (CC) at concentrations of 100, 50, 25 and 2 μM. Viable forms were counted in Neubauer chambers under phase contrast microscopy using 40X objectives. Data representing three independent experiments.
Supplementary file pone.0162926.s002.tif: S2 Fig T. cruzi epimastigotes (Dm28c strain) were cultivated for 7 days in BHI (Brain Heart Infusion) culture medium supplemented with hemin, folic acid and 10% fetal bovine serum at 26°C, and readily treated with CUR, DMC, BDMC and CC at the indicated concentrations ranging from 2 to 100μM. Viable forms were counted on Neubauer chambers under phase microscopy at the seventh day. The data presented were obtained from three representative independent experiments. (TIF) Click here for additional data file.

[2] = test system: Sterol 14α-demethylase (CYP51); assay: Sterol content (lanosterol/ergosterol ratio) of treated epimastigotes by RP-HPLC; type: cell-based, Trypanosoma cruzi
Procedure: Since the detachment of the flagellar membrane was reported in T. cruzi and L. amazonensis treated with sterol biosynthesis inhibitors, the results obtained in microscopy study led us to investigate the sterol content of epimastigotes treated with CUR. Sterol 14α-demethylase (CYP51) is the enzyme involved in conversion of lanosterol to ergosterol in the parasite cell by oxidative removal of the sterol 14α-methyl group, being a key step in the biosynthesis of cell membrane 14 α-demethylated sterols and consequently in the maintenance of the cell viability. Thus, this enzyme is a promising target for chemotherapy of Chagas disease. The method reported by Pinto and co-workers for steroid determination on fungi was adapted to T. cruzi epimastigotes. After saponification followed by n-hexane extraction of a T. cruzi epimastigote pellet cultivated in the presence of two different concentrations of CUR, the organic layer was concentrated and submitted to RP-HPLC analysis (as shown in S5 Fig). […] It seems that in both treatments the parasite membrane-cytoskeleton linkage has been compromised.
6x10^6 epimastigotes of T. cruzi (Dm28c strain) were grown for 7 days in 30mL of BHI culture medium at 26°C. Some cultures were treated with curcumin (CUR, 5 and 10 μM), posaconazole (0.05 and 0.1 μM). The cultures were submitted to centrifugation at 2100 rpm for 10 minutes. […]

[3] = test system: T. cruzi epimastigotes (Dm28c strain); assay: Flow cytometry analysis of the cell cycle (DNA content); type: cell-based, Trypanosoma cruzi; conditions: 48 h
Procedure: The cultures treated with CUR, DMC and BDMC at a concentration of 100 μM led to an accumulation of, respectively, 45%, 52% and 40% of cells in the G2 phase, while in the non-treated cells, G2 population was 20%. The ability to arrest cells in the G2/M phase is a characteristic of microtubule-interacting agents. For this reason, we used paclitaxel as positive control, a known microtubule drug that is active against Trypanosomatidae organisms. Consistently with its action on microtubules, paclitaxel promoted an accumulation of 57% of cells in the G2 phase (Fig 9). Thus, the effects of curcuminoids in the cell cycle can be explained, at least partially, by the disturbance of microtubules, in agreement with the mechanism of interaction with tubulin proposed by the electron microscopy experiments. The arising of sub-G1 peaks possibly correspond to apoptotic cells, what is more prominent in paclitaxel than in the curcuminoids treated cultures and the small sub-G1populations indicate that curcuminoids promote low apoptosis (Fig 9).
Fig 9 Percentage of cells in different phases of cell cycle. Cells were treated with CUR and DMC at 10, 50 and 100 μM concentrations and with 100 μM BDMC. Paclitaxel (20 μM) was employed as positive control, and DMSO 0.02% as negative control. Results are the mean of the triplicates with standard deviation represented by error bars. Statistical significance relative to control * P<0.05, ** P<0.01 and *** P<0.001. The data shown were obtained from three independent experiments.
Epismatigotes forms of T. cruzi (Dm28c strain) were grown at 28°C in BHI medium at a concentration of 2x10^6 cells.mL^-1 in 12-well culture plates (TPP™, Switzerland). Test compounds (CUR, DMC and BMDC) were added in triplicate at concentrations of 10, 50 and 100 μM. The controls used were the vehicle (DMSO 0.02%) and paclitaxel at 20 μM concentration. After 48 h of incubation, parasites were fixed in ethanol 70% for 30 min at -20°C. Next, cells were centrifuged at 200 rcf for 8 min and washed with PBS. Then, the samples were incubated for 10 min with a permeabilization buffer (0.2 M Na2HPO4 and 0.005% Triton-X, pH 7.8). Finally, cells were centrifuged at 200 rcf for 8 min and stained in a solution of 50 μg.mL^-1 propidium iodide (PI) and 0.2 μg.mL^-1 RNAse for 30 min at room temperature. DNA content was analyzed measuring PI fluorescence in a BD […] cytometer (Becton Dickinson Company, USA) at 488 nm excitation wavelength and 585/40 nm emission filter.
Supplementary file pone.0162926.s006.tif: S6 Fig Representative fluorescence histograms showing DNA content of cell-cycle phases (Sub-G1, G1, S and G2) of parasites (Dm28c strain). […]

[4] = test system: Peritoneal macrophages (Mø); type: cell-based; conditions: murine peritoneal macrophages, 48 h, trypan blue
Procedure: (§1) The natural products have been subjected to a cytotoxicity assay on two distinct murine cell types. These compounds were tested upon macrophages (Mø), which are host cells during T. cruzi infection and splenocytes as lymphocytes are highly sensitive to external agents. The maintenance of cell viability at presence of the curcuminoids may indicate their low toxicity to mammalian cells. Peritoneal macrophages harvested from Balb/c mice were treated for 48 hours with concentrations of each test substance (S3 Fig). Splenocyte viability assays were performed in cells obtained from BALB/c mice and grown from a 5x10^5 cells.mL^-1 suspension (S4 Fig). For both cell types, viability was assessed by the trypan blue dye exclusion method, because colorimetric methods such as XTT were not suitable due to influence of the curcumin chromophoric properties. The results obtained on the evaluation of CUR, DMC, BDMC and CC against T. cruzi epimastigotes as well as the results of two host cell types treated with a 100 μM concentration of each compound are summarized in Table 1. […]
Supplementary file pone.0162926.s003.tif: S3 Fig Peritoneal macrophages obtained from BALB/c mice were cultured in triplicates at concentration of 5x10^5cells.mL^-1. […] Cell viability was assessed by exclusion method using trypan blue. […]

[5] = test system: Splenocytes; type: cell-based; conditions: murine splenocytes, 48 h, trypan blue
Procedure: as §1, with “properties.” for “properties. The results obtained on the evaluation of CUR, DMC, BDMC and CC against T. cruzi epimastigotes as well as the results of two host cell types treated with a 100 μM concentration of each compound are summarized in Table 1.”
Splenic lymphocytes were obtained from male BALB/c mice and plated at 5x10^5 cells.mL^-1 in triplicate. […] Viability was evaluated by the exclusion method using trypan blue and the data shown is representative of three independent experiments.
Supplementary file pone.0162926.s004.tif: S4 Fig Lymphocytes were obtained from the spleen of BALB/c mice and cultivated at concentration of 5x10^5 cells.mL^-1. […] Cell viability was assessed by exclusion method using trypan blue. […]

[6] = test system: MCF-7 tumor cells; set-up: method as in PMID 9714342; conditions: cited from earlier work
[7] = Trypanosoma cruzi, 168 h, epimastigotes, Dm28c strain, 7 days

Molecule	activity on proliferation/survival of epimastigotes (in words) ([1]; 7 days)	cells in the G2 phase ([3]; 100 μM, non-treated cells 20%) [%]	IC50 [1, 7] [µM]	further results
COc1cc(/C=C/C(=O)CC(=O)/C=C/c2ccc(O)c(OC)c2)ccc1O [CUR, Curcumin]	active	45		IC50 ([1]; Trypanosoma cruzi, 168 h): 10.1 µM; lanosterol/ergosterol ratio vs untreated control ([2]; CUR 5 and 10 μM, 7 days): no significant difference
demethoxycurcumin [DMC]	active	52		IC50 ([1]; epimastigotes, Dm28c strain, 7 days): 11.1 µM; LD50 Mø [4]: > 100 µM; LD50 Splenocytes [5]: > 100 µM
COc1cc(/C=C/C2=CC(=O)CC(c3ccc(O)c(OC)c3)O2)ccc1O (centres unmarked) [CC, cyclocurcumin]	inactive		> 100	inhibition of MCF-7 tumor cells proliferation [6]: inactive
CC[C@@H]([C@H](C)O)n1ncn(-c2ccc(N3CCN(c4ccc(OC[C@@H]5CO[C@@](Cn6cncn6)(c6ccc(F)cc6F)C5)cc4)CC3)cc2)c1=O [posaconazole, reference compound]				lanosterol/ergosterol ratio vs untreated control ([2]; posaconazole 0.05 and 0.1 μM, positive control): significant increase
CC(=O)O[C@H]1C(=O)[C@@]2(C)[C@H]([C@H](OC(=O)c3ccccc3)[C@]3(O)C[C@H](OC(=O)[C@H](O)[C@@H](NC(=O)c4ccccc4)c4ccccc4)C(C)=C1C3(C)C)[C@]1(OC(C)=O)CO[C@@H]1C[C@@H]2O [paclitaxel, reference compound]				cells in the G2 phase ([3]; 20 μM, positive control): 57%
O=C(/C=C/c1ccc(O)cc1)CC(=O)/C=C/c1ccc(O)cc1 [BDMC, bisdemethoxycurcumin]	active	40	45.3	
